Experimental data as given in ChEMBL document CHEMBL1201862, “PubChem BioAssay data set” (2004).
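Dose response: 5 concentrations. Exposure: 48 h. Format: 96-well plates. Endpoint: linear interpolation; highest concentration if not reached. GI50 is the concentration that inhibits growth by half.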 Active and inactive are the calls of the source. Rule as the data show it: active = GI50 up to about 1.1 µM and inactive = higher.

What was measured:
Experiment in all cases: DTP human tumour cell line panel, 48 h
T47D = test system: T47D
XF498 = test system: XF498
SNB-78 = test system: SNB-78
LXFL 529 = test system: LXFL 529
KM-20L2 = test system: KM-20L2
DMS-273 = test system: DMS-273
HOP-18 = test system: HOP-18
DMS-114 = test system: DMS-114
RXF 631 = test system: RXF 631

## N#C[C@H](c1ccccn1)c1nc2ccccc2nc1Cl
T47D
  GI50: > 100 µM (inactive)

## Cc1cc(S(=O)(=O)NC2=NCc3nc4ccccc4n32)c(S)cc1Cl
T47D
  GI50: 21.9 µM (inactive)

## COc1ccc(-c2c(-c3ccccc3)c(C)c3ccccn23)cc1
T47D
  GI50: 22.8 µM (inactive)

## CC(NNC(=O)c1cc[n+]([BH2-]C#N)cc1)c1ccc(Cl)c(Cl)c1 (configuration not stated)
T47D
  GI50: 23.3 µM (inactive)

## N#Cc1c(-c2ccccc2)c(CN2CCCCC2)c(=O)n2c1[nH]c1ccccc12
T47D
  GI50: 40.9 µM (inactive)

## Cc1cc2nc3c(C(O)CO)nn(-c4ccccc4)c3nc2cc1C (configuration not stated)
T47D
  GI50: 11.5 µM (inactive)

## COC(=O)C(NC(=O)OC(C)(C)C)P(=O)(OC)OC (configuration not stated)
T47D
  GI50: > 100 µM (inactive)

## CC12CCC3C(CCC4CC(OC(=O)Cc5ccc(N(CCCl)CCCl)cc5)CCC43C)C1CCC(=O)N2 (configuration not stated)
XF498
  GI50: 16.5 µM (inactive)
SNB-78
  GI50: 24.4 µM (inactive)
LXFL 529
  GI50: 16.2 µM (inactive)
KM-20L2
  GI50: 17.4 µM (inactive)
DMS-273
  GI50: 12.9 µM (inactive)
HOP-18
  GI50: 17.3 µM (inactive)
DMS-114
  GI50: 12.8 µM (inactive)

## O=C1C2c3[nH]c4ccccc4c3C3CCSCC3C2C(=O)N1c1ccccc1 (configuration not stated)
XF498
  GI50: > 100 µM (inactive)
SNB-78
  GI50: > 100 µM (inactive)
LXFL 529
  GI50: > 100 µM (inactive)
KM-20L2
  GI50: > 100 µM (inactive)
DMS-273
  GI50: > 100 µM (inactive)

## Cc1ccc(S(=O)(=O)NCCCSCCN)cc1
T47D
  GI50: > 100 µM (inactive)

## CC(C)=CCC/C(C)=C/CC/C(C)=C/CSc1ccc(Cl)cc1C(=O)O
T47D
  GI50: > 10 µM (inactive)

## C[N+](C)(C)/C=N\c1cccc2c1CCCC2
T47D
  GI50: 69.3 µM (inactive)

## O=C1CCCCCCCCCCOC(=O)CCCCCCCCCCO1
SNB-78
  GI50: > 100 µM (inactive)
LXFL 529
  GI50: > 100 µM (inactive)
KM-20L2
  GI50: > 10 µM (inactive)
DMS-273
  GI50: > 100 µM (inactive)
HOP-18
  GI50: > 100 µM (inactive)
DMS-114
  GI50: > 100 µM (inactive)

## Nc1ccc2c(c1)C1=NNC(=O)CC1C2 (configuration not stated)
XF498
  GI50: > 100 µM (inactive)
SNB-78
  GI50: > 100 µM (inactive)
KM-20L2
  GI50: > 100 µM (inactive)
DMS-273
  GI50: > 100 µM (inactive)
HOP-18
  GI50: > 77.6 µM (inactive)
DMS-114
  GI50: > 100 µM (inactive)

## O=C(c1ccccc1)c1cc(Cl)ccc1NCn1nnc2ccccc21
XF498
  GI50: > 100 µM (inactive)
LXFL 529
  GI50: 98.9 µM (inactive)
KM-20L2
  GI50: 60.4 µM (inactive)
DMS-273
  GI50: 39.1 µM (inactive)
HOP-18
  GI50: > 100 µM (inactive)
DMS-114
  GI50: 31.5 µM (inactive)

## CC(C)N(C)C(=O)C12C3C4C1C1C2C3C41C#N (configuration not stated)
T47D
  GI50: > 100 µM (inactive)

## COc1ccc(C2C3CCc4ccccc4C3=NN2S(=O)(=O)c2cccc(C(=O)O)c2OC)cc1 (configuration not stated)
T47D
  GI50: 4.83 µM (inactive)

## O=C1CC2(CCC(O)(c3ccc4ccccc4c3)C(C(=O)c3ccc4ccccc4c3)C2)C(=O)c2ccccc2N1 (configuration not stated)
T47D
  GI50: 2.13 µM (inactive)

## c1ccc2c(c1)c1c(n2CCOCCCN2CCCCC2)CCCC1
T47D
  GI50: 17.2 µM (inactive)

## Cc1nc2c(nc1Cl)nc(Oc1ccc(Cl)cc1)c1ccccc12
RXF 631
  GI50: > 100 µM (inactive)
XF498
  GI50: 73.3 µM (inactive)
SNB-78
  GI50: 59.4 µM (inactive)
LXFL 529
  GI50: 51.4 µM (inactive)
KM-20L2
  GI50: > 100 µM (inactive)
DMS-273
  GI50: 46.5 µM (inactive)
DMS-114
  GI50: 47.5 µM (inactive)

## Cc1nc(N(CCO)CCO)c2sc(=S)n(-c3ccccc3)c2n1
LXFL 529
  GI50: > 100 µM (inactive)
HOP-18
  GI50: > 100 µM (inactive)

## C=C(/C=C/C=C(/CCC=C(C)C)COC(C)=O)[C@@H]1CC[C@]2([C@H](CCCO)/C(=C(/C)C=O)CC[C@]2(C)O)[C@@H]1O
SNB-78
  GI50: > 10 µM (inactive)
KM-20L2
  GI50: 14.4 µM (inactive)
DMS-273
  GI50: 2.27 µM (inactive)
HOP-18
  GI50: 11.5 µM (inactive)
DMS-114
  GI50: 14.2 µM (inactive)

## COC1CC(C)(NC(=O)C(F)(F)F)C2OC(c3ccccc3)OCC2O1 (configuration not stated)
T47D
  GI50: > 100 µM (inactive)

## O=C1c2cc3c(cc2CC12Cc1ccc4c(c1C2=O)CCC4)CCCC3 (configuration not stated)
T47D
  GI50: > 100 µM (inactive)

## CC(=O)O[C@H]1CC[C@@]2(C)[C@H](CC[C@@H]3[C@@H]2CC[C@]2(C)[C@@H](c4ccc(=O)oc4)C[C@H]4O[C@]342)C1
XF498
  GI50: 1.3 µM (inactive)
SNB-78
  GI50: 0.404 µM (active)
KM-20L2
  GI50: 1.38 µM (inactive)
DMS-273
  GI50: 0.458 µM (active)
HOP-18
  GI50: 0.423 µM (active)
DMS-114
  GI50: 0.119 µM (active)

## COc1ccc(NC(=S)c2ccc([N+](=O)[O-])o2)cc1
T47D
  GI50: 3.01 µM (inactive)

## CN(C)c1cccc2c1C(=O)C=CC21CCc2ccc(N(C)C)c3c(N(C)C)ccc1c23 (configuration not stated)
T47D
  GI50: 66.4 µM (inactive)

## CCCC(=O)Nc1cc2c3c(c1)CCCN3CCC2
T47D
  GI50: 6.01 µM (inactive)

## O=S(O)CCCSSSCCCS(=O)O
RXF 631
  GI50: > 100 µM (inactive)
XF498
  GI50: > 100 µM (inactive)
SNB-78
  GI50: > 100 µM (inactive)
LXFL 529
  GI50: > 100 µM (inactive)
KM-20L2
  GI50: > 100 µM (inactive)
DMS-114
  GI50: > 100 µM (inactive)

## Cn1c(=O)n2n(c1=O)C(C)(C13CC4CC(CC(C4)C1)C3)C13CC4CC(CC1C4)CC23 (configuration not stated)
T47D
  GI50: > 100 µM (inactive)

## O=C1C2C3SC(c4cc5ccccc5cc43)C2C(=O)N1c1ccccc1 (configuration not stated)
RXF 631
  GI50: > 100 µM (inactive)
SNB-78
  GI50: 84.5 µM (inactive)
LXFL 529
  GI50: 94.6 µM (inactive)
KM-20L2
  GI50: > 100 µM (inactive)
DMS-273
  GI50: > 100 µM (inactive)
HOP-18
  GI50: > 100 µM (inactive)
DMS-114
  GI50: > 100 µM (inactive)

## CC(=O)NC1=C(C)C(=O)c2c(nc3n2CCC3OC(=O)c2ccccc2)C1=O (configuration not stated)
SNB-78
  GI50: 2.71 µM (inactive)
LXFL 529
  GI50: 1.56 µM (inactive)
DMS-273
  GI50: 2.07 µM (inactive)
DMS-114
  GI50: 0.805 µM (active)

## CC(C)NC(=O)OCc1nnn2c1CCC2
XF498
  GI50: > 100 µM (inactive)
SNB-78
  GI50: > 100 µM (inactive)
LXFL 529
  GI50: > 100 µM (inactive)
KM-20L2
  GI50: > 100 µM (inactive)

## C[N+]1(C)CN(c2ccccc2)C2(CCN(CCCC(=O)c3cccs3)CC2)C1=O
T47D
  GI50: > 100 µM (inactive)
